Source: patent US20210317090A1, “AMINO ACID DEPLETION AGENTS AS ANTIPROLIFERATIVE AGENTS” (University of Central Florida Research Foundation, Inc., priority 2018, published 2021)
Where two headings read alike, the source gives them in different places. One block for each molecule: values may come before it.

How the values were obtained:
[1] = system: CHO K1 cells; assay: Cytotoxicity dose-response (MTS cell viability) in CHO K1 cells; assay type: cell-based, Chinese hamster; conditions: 48 h
Procedure: CHO K1 Studies. Wild type Chinese hamster ovary (CHO K1) cells were chosen to first study the synthetic compounds' impact on polyamine metabolism. The CHO K1 cell line has high polyamine transport activity and was useful in screening compounds for their polyamine transport inhibitor activity. A dose-response curve was obtained for each compound to determine their toxicity in CHO K1 cells after 48 h incubation. Compound 9 (1666.177) was non-toxic up to the highest dose tested (15 μM).
(§1) Regarding the biological studies performed in the following examples, it is noted that CHO K1, CHO-MG, and L3.6pl cells were grown in RPMI 1640 medium supplemented with 10% fetal bovine serum (FBS) and 1% penicillin/streptomycin. All cells were grown at 37° C. under a humidified 5% CO2 atmosphere. Aminoguanidine (1 mM used for CHO K1 and CHOMG cells and 250 μM for L3.6pl) was added to the growth medium to prevent oxidation of the compounds of the bovine serum amine oxidase enzyme that is present in calf serum. The cells used were in early to mid log phase and CHO and CHOMG were plated out at 1000 cells/well, whereas the L3.6pl cells were plated at 500 cells/well in a 96 well plate format.
(§2) This example illustrates aspects according to various embodiments pertaining to IC50 determinations and cell viability studies. Cell growth was assayed in sterile 96-well microtiter plates (Costar 3599, Corning, N.Y.). CHO K1 or CHOMG cells were plated at 1,000 cells/70 μL and L3.6pl cells at 500 cells/70 μL. The drug solutions of appropriate concentration in phosphate buffered saline (PBS) were added 10 μL per well after overnight incubation. After drug exposure (e.g., for 48 h for CHO K1 and CHO-MG and 48 h or 72 h for L3.6pl), cell growth was determined by measuring formazan formation from the 3-(4,5dimethylthiazol-2-yl)-5-(3-carboxymethoxyphenyl)-2-(4-sulfenyl)-2H tetrazolium, inner salt (MTS) using SynergyMx Biotek microplate reader for absorbance (490 nm) measurements.^27 All experiments were run in triplicate.

[2] = system: L3.6pl human pancreatic cancer cells; assay: Cytotoxicity dose-response (MTS) in L3.6pl cells; assay type: cell-based
Procedure: L3.6pl Studies. Compounds 9 and 10 were evaluated in the metastatic human pancreatic cancer cell line, L3.6pl. L3.6pl has a K-ras mutation, and high polyamine uptake activity.^7 A dose-response curve was obtained for each compound in L3.6pl cells to determine the 72 h L3.6pl IC50 value, described as the dose at which L3.6pl cells were 50% viable compared to the untreated control.
as §1, §2

[3] = system: CHO K1 cells; assay: cells; assay type: cell-based, Chinese hamster; conditions: Cricetulus griseus, Ant-44 0.5 μM
Procedure: Various embodiments involve the concept that a non-toxic PTI agent would inhibit the uptake of the cytotoxic polyamine conjugate Ant-44 (11) and rescue cells from Ant-44 induced toxicity. For example, using the IC50 dose of Ant-44, PTIs could be identified by measuring a compound's ability to block Ant-44 entry and rescue cells back to >90% viability. […] This toxic dose of Ant-44 was kept constant throughout the assay, while the candidate PTI compound was added in increasing concentrations up to its MTD.
Compounds (9 and 10) were tested at 5 μM and 7 μM. CHO K1 cells were treated in a 96-well plate with a toxic dose of Ant-44 (2.4 μM) alone and dosed with the candidate compounds (at 5 μM and 7 μM) and incubated for 48 h at 37° C.
To further explore this effect, development of various embodiments included modifying an original screen to use a lower dose of Ant-44 (0.5 μM) to improve the dose range of 9 and 10 that could be tested. In this regard, Ant-44 was dosed at 0.5 μM alone and in combination with increasing doses of compounds 9 (1666.177) and 10 (1666.255) and the CHO K1 cells were incubated for 48 h at 37° C., and the results are shown in FIG. 5. The red line represents the % cell viability of the Ant-44 only control. The Ant44 potentiation assay EC50 value is defined as the concentration of the candidate compound required to decrease the cell viability to half that of the Ant-44 only control. Both compounds 9 and 10 were effective at decreasing cell viability, when used in combination with Ant-44 in a dose dependent fashion.
FIG. 5 is an example according to various embodiments, illustrating potentiation of Ant-44 toxicity by compounds 9 and 10 in CHO K1 cells. Cells were incubated for 48 h at 37° C. with the respective compound and a fixed concentration of cytotoxic Ant-44 (0.5 μM). A 1 mM AG solution was incubated with the CHO K1 cells for 24 h prior to the addition of candidate compound. This was necessary to protect Ant-44 from the amine oxidases present in the media containing fetal bovine serum. […] Both compounds are nontoxic at the highest concentration tested (5 μM).

[4] = system: L3.6pl cells; assay: Ant-44 toxicity potentiation assay in L3.6pl cells; assay type: cell-based, human; conditions: Homo sapiens, Ant-44 2 μM, 72 h
Procedure: As performed previously with CHO K1 cells, L3.6pl cells were treated with compounds 9 (1666.177) and 10 (1666.255) and a fixed dose of Ant-44 to observe the potentiation effect. The 72 h IC50 dose of Ant-44 in L3.6pl cells was previously determined to be 4 μM. For this study, half that dose was used to replicate the large window used in the CHO experiments to look at reduction in cell viability. In a 96-well plate, L3.6pl cells were dosed with a fixed concentration of Ant-44 (2 μM) and increasing doses of compounds 9 (1666.177) and 10 (1666.255). Although both compounds were effective at reducing cell viability, higher doses were required compared to CHO K1 cells.
FIG. 6 is an example according to various embodiments, illustrating the ability of compounds 9 (1666.177) and 10 ([…]) to potentiate the effect of Ant-44 in L3.6pl cells. Cells were incubated for 72 h at 37° C. with the respective compound and Ant-44 (2 μM). A 250 μM AG solution was incubated with the cells for 24 h prior to addition of compounds. […] Both compounds are nontoxic at the second highest concentration tested (1 μM).

[5] = system: CHO K1 cells; conditions: previously determined (ref 7), read-out: 48 h IC50; cited from earlier work
[6] = molecular target: T1, LAT-1 (Homo sapiens, UniProt Q01650); assay: 3H-Leucine uptake assay; assay type: cell-based; conditions: L3.6pl cells, increasing concentration, 15 min uptake (FIG. 10D, 10E)
T1 construct: endogenous in cells; host or cells: L3.6pl human pancreatic cancer cells
T1 sequence (Q01650 whole entry): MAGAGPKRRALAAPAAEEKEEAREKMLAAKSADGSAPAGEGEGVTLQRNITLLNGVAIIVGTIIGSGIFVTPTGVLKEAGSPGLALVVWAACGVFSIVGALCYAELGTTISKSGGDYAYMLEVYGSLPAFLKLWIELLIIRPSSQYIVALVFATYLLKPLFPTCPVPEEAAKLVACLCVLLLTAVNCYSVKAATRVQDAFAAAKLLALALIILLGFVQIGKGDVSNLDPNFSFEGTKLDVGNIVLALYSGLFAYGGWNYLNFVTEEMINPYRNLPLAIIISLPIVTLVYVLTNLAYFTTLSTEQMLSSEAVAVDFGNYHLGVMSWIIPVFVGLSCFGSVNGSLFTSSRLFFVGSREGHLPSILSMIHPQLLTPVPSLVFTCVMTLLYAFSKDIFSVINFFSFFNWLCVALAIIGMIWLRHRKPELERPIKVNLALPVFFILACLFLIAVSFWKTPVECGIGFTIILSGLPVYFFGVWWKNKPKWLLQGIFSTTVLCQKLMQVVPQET
T1 sequence (P08195 102-630 partner): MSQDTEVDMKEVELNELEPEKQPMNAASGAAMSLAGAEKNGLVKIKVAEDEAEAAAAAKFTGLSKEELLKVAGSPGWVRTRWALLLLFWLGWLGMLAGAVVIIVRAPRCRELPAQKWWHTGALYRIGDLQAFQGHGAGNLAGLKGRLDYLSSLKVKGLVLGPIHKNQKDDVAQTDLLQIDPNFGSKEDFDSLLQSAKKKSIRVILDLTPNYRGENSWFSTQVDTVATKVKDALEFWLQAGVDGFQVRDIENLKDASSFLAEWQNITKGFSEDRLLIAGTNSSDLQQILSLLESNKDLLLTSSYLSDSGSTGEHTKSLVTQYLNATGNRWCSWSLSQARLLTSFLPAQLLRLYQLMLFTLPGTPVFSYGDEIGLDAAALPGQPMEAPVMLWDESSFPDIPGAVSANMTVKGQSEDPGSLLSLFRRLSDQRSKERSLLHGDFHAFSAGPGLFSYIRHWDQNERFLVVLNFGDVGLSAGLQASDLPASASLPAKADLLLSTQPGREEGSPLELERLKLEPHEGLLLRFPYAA
Procedure: ^3H-Leucine uptake experiments were performed according to the protocol developed by Hälfliger et al. (2018) (referenced below with the following changes. Briefly, cells were seeded at 60% confluency in a 24-well plate and incubated for 4 h at 37° C. After 4 hours, different concentrations of compound 10 were added and the cells were then incubated overnight. L-^3H-leucine uptake inhibition was measured for 15 minutes using a 12 μM stock of L-[^3H]leucine (79 Ci/mmol). The final concentration of ^3H-leucine in each well was 1.2 uM. This concentration produced a CPM reading of ˜4000 cpm for the control. Uptake was terminated by removing the buffer solution followed by washing the cells with cold Na^+-free Hank's Balanced Salt Solution. Cells were then lysed to give ˜500 μL of cell lysate. A portion of the cell lysate (200 μL) was mixed with Scintiverse™ BD Cocktail for determining radiocounts. The radioactivity was measured with a scintillation counter (Beckman Coulter LS 6500 Multi-Purpose Scintillation Counter). Another portion of the cell lysate (300 μL) was used for protein determination using the BCA method. The final data was expressed as cpm/microgram of protein to account for the different number of cells remaining after the experiment. This was necessary because compound 10 was toxic and less cells were present after the overnight incubation (24 h). […]

[7] = molecular target: T1, LAT-1; assay: 3H-Leucine efflux assay; assay type: cell-based; conditions: L3.6pl, 2 min; JPH-203 30 μM or compound 10 20 μM
Text: JPH203 is not toxic to L3.6pl cells over this concentration range and time interval. FIG. 10E is an example according to various embodiments, illustrating results obtained for a Leu uptake inhibition experiment with compound 10. Note: the y-axis in FIG. 10E is in CPM per ug of protein to normalize the data and account for any potential losses of cells due to toxicity of compound 10. FIG. 10F is an example according to various embodiments, illustrating results obtained for a Leucine efflux experiment with LAT-1 inhibitor JPH-203. Briefly, the efflux procedure involved cells pre-incubated with ‘hot’ leucine (3H labeled) and washed to remove unbound radiolabeled Leucine. The cells were then incubated in the presence and absence of unlabeled Leucine (100 μM) and/or the LAT-1 inhibitor JPH-203 (30 μM). In the presence of unlabeled leucine, the cells released ‘hot’ 3H-leucine into the media which was measured via scintillation/radioactivity counts. This efflux or release from within the cell was inhibited by the presence of the LAT-1 inhibitor, JPH-203 (30 μM, FIG. 10F). Since JPH203 inhibits the import of unlabeled leucine then less unlabeled Leucine will enter the cell and less efflux of radiolabeled Leucine molecules from inside the cell will be observed. This is consistent with JPH-203 being a LAT-1 inhibitor. FIG. 10G is an example according to various embodiments, illustrating results obtained for a two minute Leucine efflux experiment with compound 10. Cells were pre-incubated with ‘hot’ leucine (^3H labeled) and washed to remove unbound radiolabeled Leucine. The cells were then incubated in the presence and absence of unlabeled “cold” Leucine (100 μM) and/or the compound 10 (20 μM). In the presence of unlabeled ‘cold’ leucine, the cells released ‘hot’ ^3H-leucine into the media which was measured via scintillation/radioactivity counting. […] The efflux experiment was repeated and the time for monitoring efflux increased to 30 minutes. […] In summary, compound 10 inhibits Leucine uptake and facilitates LAT-1 mediated efflux.
^3H-Leucine Efflux Assay ^3H-Leucine efflux experiments were performed according to the protocol developed by Hälfliger et al. (2018) (referenced below) with the following changes. Briefly, cells were preloaded with 12 μM stock of L-[^3H]leucine (79 Ci/mmol) to give a final concentration of ^3H-leucine was 1.2 μM in each well. […] The medium was then collected and mixed with scintillation fluid (Scintiverse™ BD Cocktail) and radioactivity measured (Beckman Coulter LS 6500 Multi-Purpose Scintillation Counter). […] The lysate (300 μL) was mixed with scintillation fluid and radioactivity was counted. Relative efflux was expressed as percentage radioactivity=100%×(radioactivity of medium)/(radioactivity of the medium+radioactivity of the cells). […]

Structure (SMILES): CC(C)(C)CCN1CCN(C(CNCc2ccccc2)Cc2ccccc2)CC1Cc1ccccc1.Cl.Cl.Cl (stereo not drawn) [Compound 9, Benzyl-{2-[3-benzyl-4-(3,3-dimethyl-butyl)-piperazin-1-yl]-3-phenyl-propyl}-amine trihydrochloride salt]
- toxicity of compound alone ([1]; CHO K1, highest concentration tested (5 μM)): nontoxic
- toxicity (dose-response curve) ([1]; CHO K1 cells, up to the highest dose tested (15 μM)): non-toxic
- IC50 ([2]; Homo sapiens, L3.6pl cells, 72 h, read-out: 72 h IC50): 11.7 ± 0.9 µM
- toxicity of compound alone ([2]; L3.6pl, second highest concentration tested (1 μM), 72 h): nontoxic
- EC50 ([3]; CHO K1 cells, 48 h (FIG. 5), read-out: Ant-44 potentiation EC50): 750 nM
- EC50 ([3]; CHO cells, 48 h, read-out: Ant44 potentiation assay EC50): 750 nM
- EC50 [4]: 3.27 ± 0.17 µM

Structure (SMILES): NCCC[C@](N)(C(=O)O)C(F)F [DFMO, α-difluoromethylornithine]
- IC50 [5]: 4.2 mM

- 3H-leucine efflux stimulated by unlabeled Leucine (100 μM) [7]: inhibited
- 3H-leucine efflux, compound alone [7]: modestly stimulated efflux
Structure (SMILES): Nc1cc(COc2c(Cl)cc(C[C@H](N)C(=O)O)cc2Cl)c2oc(-c3ccccc3)nc2c1 [JPH-203, reference compound]
- toxicity to L3.6pl cells ([2]; over the concentration range and time interval of the uptake experiment): not toxic
- 3H-Leucine uptake [6]: dose dependent decrease in 3H-Leucine uptake
